Experiment: Recovered dose from pre-filled syringes emptied through 27G needle after storage, not resuspended (gas chromatography)
Type: physicochemical
Details: suspension in pre-filled syringes during storage
Procedure: Filling weight was 0.5 g with the suspension having a density of about 0.95 g/mL.
The syringes were stored horisontally at 5° C., 25° C./60% RH and 40° C./75% RH, respectively, for up to twelve months. […] The syringes were taken directly from storage and not resuspended, mixed or shaken before ejection and assaying.

CC(=O)[C@H]1CC[C@H]2[C@@H]3CC[C@H]4C[C@@H](O)CC[C@]4(C)[C@H]3CC[C@]12C [3-beta-hydroxy-5-alpha-pregnan-20-one]
Primary particle size during storage: remained unchanged

Source: patent US20250041206A1, “Injectable Suspensions” (ASARINA PHARMA AB, priority 2017, published 2025)
